Reference: ChEMBL document CHEMBL2401634, “Discovery of novel indolinone-based, potent, selective and brain penetrant inhibitors of LRRK2” (Bioorg Med Chem Lett, 2013)
In brackets after ≈: the same amount, converted by molar mass. Activity calls are given as the source filed them. The calls are words filed in the database; no cut-off is given here.

What was measured:
[1] = biological target: Proto-oncogene tyrosine-protein kinase receptor Ret (Homo sapiens, UniProt P07949); assay: Inhibition of RET (unknown origin)
[2] = biological target: Tyrosine-protein kinase Lck (Homo sapiens, UniProt P06239); assay: Inhibition of LCK (unknown origin)
Tyrosine-protein kinase Lck, sequence (P06239 whole entry): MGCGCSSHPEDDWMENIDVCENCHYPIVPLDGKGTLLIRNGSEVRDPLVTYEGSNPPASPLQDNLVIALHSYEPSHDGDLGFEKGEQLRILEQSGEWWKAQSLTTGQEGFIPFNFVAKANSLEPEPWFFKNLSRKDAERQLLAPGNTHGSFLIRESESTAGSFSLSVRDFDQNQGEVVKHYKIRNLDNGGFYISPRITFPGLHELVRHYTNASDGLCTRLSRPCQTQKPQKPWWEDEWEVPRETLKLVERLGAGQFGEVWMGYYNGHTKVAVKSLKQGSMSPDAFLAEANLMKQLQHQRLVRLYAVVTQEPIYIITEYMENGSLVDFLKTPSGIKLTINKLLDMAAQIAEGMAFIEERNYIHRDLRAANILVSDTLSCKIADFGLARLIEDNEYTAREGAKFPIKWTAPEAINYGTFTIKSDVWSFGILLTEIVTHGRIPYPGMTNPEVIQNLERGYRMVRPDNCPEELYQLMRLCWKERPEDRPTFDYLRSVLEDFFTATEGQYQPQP

[3] = biological target: Platelet-derived growth factor receptor alpha (Homo sapiens, UniProt P16234); assay: Inhibition of PDGFRa (unknown origin)
[4] = biological target: ALK tyrosine kinase receptor (Homo sapiens, UniProt Q9UM73); assay: Inhibition of ALK (unknown origin)
ALK tyrosine kinase receptor, sequence (Q9UM73 whole entry): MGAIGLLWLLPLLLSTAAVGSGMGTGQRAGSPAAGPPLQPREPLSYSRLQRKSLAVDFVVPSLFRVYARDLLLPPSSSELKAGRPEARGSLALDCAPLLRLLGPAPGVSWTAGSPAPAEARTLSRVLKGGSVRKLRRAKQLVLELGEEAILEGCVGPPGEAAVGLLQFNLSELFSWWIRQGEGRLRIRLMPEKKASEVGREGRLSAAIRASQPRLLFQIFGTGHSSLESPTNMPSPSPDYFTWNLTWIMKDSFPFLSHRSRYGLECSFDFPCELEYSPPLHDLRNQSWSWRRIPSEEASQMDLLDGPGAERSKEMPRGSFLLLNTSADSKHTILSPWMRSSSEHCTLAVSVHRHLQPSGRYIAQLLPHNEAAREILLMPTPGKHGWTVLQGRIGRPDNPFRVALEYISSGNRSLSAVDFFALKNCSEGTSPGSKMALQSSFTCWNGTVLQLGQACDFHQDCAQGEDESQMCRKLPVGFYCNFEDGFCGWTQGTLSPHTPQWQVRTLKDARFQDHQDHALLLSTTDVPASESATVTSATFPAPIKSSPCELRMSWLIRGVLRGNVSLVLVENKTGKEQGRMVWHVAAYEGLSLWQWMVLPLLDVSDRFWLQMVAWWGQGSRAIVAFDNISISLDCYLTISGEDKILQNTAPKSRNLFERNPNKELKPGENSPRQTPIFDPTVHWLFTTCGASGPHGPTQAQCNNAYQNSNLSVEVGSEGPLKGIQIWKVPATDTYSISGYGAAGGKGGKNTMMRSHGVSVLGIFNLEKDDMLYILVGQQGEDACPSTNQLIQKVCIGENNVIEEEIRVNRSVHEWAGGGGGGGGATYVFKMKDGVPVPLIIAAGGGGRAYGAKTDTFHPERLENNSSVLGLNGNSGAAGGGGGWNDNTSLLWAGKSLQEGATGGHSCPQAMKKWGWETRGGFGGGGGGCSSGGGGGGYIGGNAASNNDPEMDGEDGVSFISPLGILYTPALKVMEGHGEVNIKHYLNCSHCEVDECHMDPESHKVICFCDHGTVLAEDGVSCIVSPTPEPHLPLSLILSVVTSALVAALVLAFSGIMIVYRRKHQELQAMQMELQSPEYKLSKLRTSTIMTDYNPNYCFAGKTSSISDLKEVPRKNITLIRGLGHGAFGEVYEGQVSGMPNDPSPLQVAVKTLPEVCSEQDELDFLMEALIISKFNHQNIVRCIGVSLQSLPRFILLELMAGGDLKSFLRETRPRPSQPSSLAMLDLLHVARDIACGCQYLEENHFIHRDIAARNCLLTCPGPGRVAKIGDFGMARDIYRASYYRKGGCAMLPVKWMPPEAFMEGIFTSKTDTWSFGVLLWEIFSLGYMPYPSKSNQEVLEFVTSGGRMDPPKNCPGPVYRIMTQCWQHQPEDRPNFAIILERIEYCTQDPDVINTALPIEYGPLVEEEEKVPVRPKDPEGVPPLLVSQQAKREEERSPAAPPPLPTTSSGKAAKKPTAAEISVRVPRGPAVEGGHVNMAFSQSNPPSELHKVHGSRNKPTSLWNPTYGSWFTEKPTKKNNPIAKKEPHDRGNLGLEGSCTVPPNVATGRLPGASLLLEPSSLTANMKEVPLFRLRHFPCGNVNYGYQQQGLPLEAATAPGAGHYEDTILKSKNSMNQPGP

[5] = biological target: Vascular endothelial growth factor receptor 2 (Homo sapiens, UniProt P35968); assay: Inhibition of KDR (unknown origin)
[6] = biological target: Leucine-rich repeat serine/threonine-protein kinase 2 (Homo sapiens, UniProt Q5S007); assay: Inhibition of human LRRK2 (1885 to 2132) using 5-Fluo-Ahx-RLGRDKYKTLRQIRQGNTK-OH as substrate after 60 mins by fluorescence assay
Leucine-rich repeat serine/threonine-protein kinase 2, sequence (Q5S007 whole entry): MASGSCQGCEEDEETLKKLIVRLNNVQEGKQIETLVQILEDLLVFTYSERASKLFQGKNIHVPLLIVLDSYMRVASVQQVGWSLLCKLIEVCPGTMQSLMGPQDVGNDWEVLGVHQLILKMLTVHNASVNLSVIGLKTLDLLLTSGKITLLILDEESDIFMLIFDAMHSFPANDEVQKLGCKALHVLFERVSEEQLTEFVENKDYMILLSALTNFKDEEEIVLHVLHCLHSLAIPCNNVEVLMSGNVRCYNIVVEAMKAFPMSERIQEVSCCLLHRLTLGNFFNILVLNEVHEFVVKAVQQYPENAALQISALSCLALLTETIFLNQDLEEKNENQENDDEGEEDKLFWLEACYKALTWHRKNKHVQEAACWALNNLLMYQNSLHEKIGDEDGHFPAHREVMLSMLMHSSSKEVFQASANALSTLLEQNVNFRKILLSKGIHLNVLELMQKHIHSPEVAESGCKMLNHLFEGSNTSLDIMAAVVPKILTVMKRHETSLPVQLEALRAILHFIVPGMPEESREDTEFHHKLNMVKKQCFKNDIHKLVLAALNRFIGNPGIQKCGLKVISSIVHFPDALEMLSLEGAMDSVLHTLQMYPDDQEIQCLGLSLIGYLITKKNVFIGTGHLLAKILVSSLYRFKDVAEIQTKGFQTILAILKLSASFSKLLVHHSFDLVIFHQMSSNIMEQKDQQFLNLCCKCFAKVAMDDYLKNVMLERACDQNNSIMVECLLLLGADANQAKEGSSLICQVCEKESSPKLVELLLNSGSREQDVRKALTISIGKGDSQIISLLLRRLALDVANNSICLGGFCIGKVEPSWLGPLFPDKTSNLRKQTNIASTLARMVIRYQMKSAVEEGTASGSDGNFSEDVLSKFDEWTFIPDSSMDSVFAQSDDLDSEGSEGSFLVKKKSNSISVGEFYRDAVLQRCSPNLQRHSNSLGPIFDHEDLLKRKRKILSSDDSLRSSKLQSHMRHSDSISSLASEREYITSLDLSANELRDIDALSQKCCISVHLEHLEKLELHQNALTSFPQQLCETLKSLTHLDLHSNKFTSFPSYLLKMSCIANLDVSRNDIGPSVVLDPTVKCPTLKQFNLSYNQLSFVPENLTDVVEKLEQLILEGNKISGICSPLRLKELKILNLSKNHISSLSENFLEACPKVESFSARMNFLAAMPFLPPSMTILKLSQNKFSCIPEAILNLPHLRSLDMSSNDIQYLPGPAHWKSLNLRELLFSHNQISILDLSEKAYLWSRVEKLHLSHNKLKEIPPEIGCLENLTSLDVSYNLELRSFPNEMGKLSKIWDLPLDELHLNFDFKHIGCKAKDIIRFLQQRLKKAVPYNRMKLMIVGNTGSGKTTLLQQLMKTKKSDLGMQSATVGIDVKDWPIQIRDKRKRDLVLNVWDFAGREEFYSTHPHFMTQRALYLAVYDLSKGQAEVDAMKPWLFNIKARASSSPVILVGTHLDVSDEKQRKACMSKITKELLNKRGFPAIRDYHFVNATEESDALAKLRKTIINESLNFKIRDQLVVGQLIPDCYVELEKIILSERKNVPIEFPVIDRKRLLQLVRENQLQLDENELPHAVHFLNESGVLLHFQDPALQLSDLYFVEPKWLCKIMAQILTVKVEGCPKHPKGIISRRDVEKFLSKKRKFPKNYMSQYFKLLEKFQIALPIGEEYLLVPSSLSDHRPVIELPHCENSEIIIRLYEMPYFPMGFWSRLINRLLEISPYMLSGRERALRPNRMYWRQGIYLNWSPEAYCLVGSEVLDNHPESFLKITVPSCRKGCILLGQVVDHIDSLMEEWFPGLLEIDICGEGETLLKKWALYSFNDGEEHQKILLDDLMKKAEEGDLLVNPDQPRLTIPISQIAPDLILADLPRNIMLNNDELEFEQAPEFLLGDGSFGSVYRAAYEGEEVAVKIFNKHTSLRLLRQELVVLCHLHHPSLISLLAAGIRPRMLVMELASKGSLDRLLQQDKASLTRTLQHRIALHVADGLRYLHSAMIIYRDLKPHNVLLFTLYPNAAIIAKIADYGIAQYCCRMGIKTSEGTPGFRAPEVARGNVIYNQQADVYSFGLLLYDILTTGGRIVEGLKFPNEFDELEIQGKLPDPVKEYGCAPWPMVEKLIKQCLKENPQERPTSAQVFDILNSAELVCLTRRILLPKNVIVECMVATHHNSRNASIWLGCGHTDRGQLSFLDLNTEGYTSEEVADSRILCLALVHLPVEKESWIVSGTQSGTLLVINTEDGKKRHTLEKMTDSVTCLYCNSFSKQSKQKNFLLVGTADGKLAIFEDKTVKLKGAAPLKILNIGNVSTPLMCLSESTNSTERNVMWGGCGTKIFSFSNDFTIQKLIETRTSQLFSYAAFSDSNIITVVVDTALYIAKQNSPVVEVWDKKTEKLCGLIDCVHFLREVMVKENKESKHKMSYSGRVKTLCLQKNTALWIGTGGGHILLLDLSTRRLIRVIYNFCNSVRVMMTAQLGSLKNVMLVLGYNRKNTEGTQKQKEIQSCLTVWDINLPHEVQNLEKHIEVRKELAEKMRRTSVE

Mus musculus [7] = assay: Binding affinity to LRRK2 in C57BL/6 mouse brain at 90 mg/kg, iv after 1 hr by pull down assay; type: functional, organism-based; design: dose 90 mg/kg
[8] = biological target: Leucine-rich repeat serine/threonine-protein kinase 2 (Mus musculus) (UniProt Q5S006); assay: Binding affinity to LRRK2 in C57BL/6 mouse brain at 1 uM after 30 mins by competition pull down assay; type: tissue-based
Mus musculus [9] = assay: Binding affinity to LRRK2 in C57BL/6 mouse brain at 10 to 180 mg/kg, po after 2 hrs by pull down assay relative to vehicle-treated control; type: functional, organism-based
[10] = Solubility of the compound at pH 6.8; type: physicochemical; conditions: buffer
[11] = biological target: Leucine-rich repeat serine/threonine-protein kinase 2 (Mus musculus) (UniProt Q5S006); assay: Binding affinity to LRRK2 in mouse C2C12 cells at 1 uM after 30 mins by competition pull down assay; type: cell-based
Mus musculus [12] = assay: Binding affinity to LRRK2 in po dosed C57BL/6 mouse brain after 2 hrs by pull down assay; type: functional, organism-based

SMILES | IC50 [1] | IC50 [2] | IC50 [3] | IC50 [4] | IC50 [5] | IC50 [6] | Activity (Mus musculus [7]) | Activity [8] | Activity (Mus musculus [9]) | solubility [10] | Activity [11] | Activity (Mus musculus [12])
O=C1Nc2ccc(C(F)(F)F)cc2/C1=C/c1cc2c([nH]1)CCN(C(=O)N1CCOCC1)C2 | 140 nM | 180 nM | 46 nM | > 10000 nM | 83 nM | < 3 nM |  |  |  |  |  | 
CC(=O)N1CCc2[nH]c(/C=C3\C(=O)Nc4ccc(C#N)cc43)cc2C1 | 4 nM | 120 nM | < 3 nM | 1600 nM | 20 nM | 7 nM |  |  |  |  |  | 
CC(=O)N1CCc2[nH]c(/C=C3\C(=O)Nc4ccc(C(F)(F)F)cc43)cc2C1 | 300 nM | 360 nM | 60 nM | 9500 nM | 320 nM | 31 nM |  |  |  |  |  | 
CC(=O)N1CCc2[nH]c(/C=C3\C(=O)Nc4ccc([N+](=O)[O-])cc43)cc2C1 | 73 nM | 1000 nM | 31 nM | > 10000 nM | 60 nM | < 3 nM |  |  |  |  |  | 
COc1ccc2c(c1)/C(=C/c1cc3c([nH]1)CCN(C(=O)N1CCOCC1)C3)C(=O)N2C |  |  |  |  |  | 150 nM |  |  |  |  |  | 
COc1ccc2c(c1)/C(=C/c1[nH]c3c(c1Cl)CN(C(C)=O)CC3)C(=O)N2 | 34 nM | 1100 nM |  | > 10000 nM | 87 nM | 8 nM |  |  |  |  |  | 
COc1ccc2c(c1)/C(=C/c1cc3c([nH]1)CCN(C(=O)N1CCN(C)CC1)C3)C(=O)N2 | 6 nM | 50 nM | 60 nM | 550 nM | 6 nM | 9 nM | inactive | Active | Active | 15 µg/mL (≈ 35.6 µM) | Active | Dose-dependent effect
COc1ccc2c(c1)/C(=C/c1cc3c([nH]1)CCN(C(=O)CCN)C3)C(=O)N2 | 4 nM | 140 nM | 120 nM | 370 nM | 8 nM | 11 nM |  |  |  |  |  | 
COc1ccc2c(c1)/C(=C/c1cc3c([nH]1)CCN(C(=O)c1cnoc1C)C3)C(=O)N2 | 75 nM | 390 nM | 540 nM | 1400 nM | 16 nM | 7 nM |  |  |  |  |  | 
CC(=O)N1CCc2[nH]c(/C=C3\C(=O)Nc4ccc(OC(C)C)cc43)cc2C1 | 150 nM | 1100 nM | 1700 nM | 3300 nM | 900 nM | 4 nM |  |  |  | < 1 µg/mL |  | 
COc1ccc2c(c1)/C(=C/c1cc3c([nH]1)CCN(C(=O)N1CCOCC1)C3)C(=O)N2 | 25 nM | 120 nM | 150 nM | 660 nM | 5 nM | 3 nM |  |  |  |  |  | 
COc1ccc2c(c1)/C(=C/c1[nH]c(C)c(C(=O)NCCCN)c1C)C(=O)N2 | < 1000 nM | < 1000 nM | < 1000 nM | < 1000 nM | < 1000 nM | 46 nM |  |  |  |  |  | 
COc1ccc2c(c1)/C(=C/c1cc3c([nH]1)CCN(C(C)=O)C3)C(=O)N2 | 54 nM | 6050 nM | 250 nM | 1500 nM | 210 nM | 14 nM |  |  |  |  |  | 
CC(=O)Nc1ccc2c(c1)/C(=C/c1cc3c([nH]1)CCN(C(=O)N1CCOCC1)C3)C(=O)N2 | 25 nM | 330 nM | 91 nM | 210 nM | 7 nM | 4 nM |  |  |  |  |  | 
CN1CCC(Nc2ccc3c(c2)/C(=C/c2cc4c([nH]2)CCN(C(=O)N2CCOCC2)C4)C(=O)N3)CC1 | 5 nM | 7 nM | 13 nM | 76 nM | 3 nM | < 3 nM |  |  |  |  |  | 
